Experimental findings from patent publication US20240325394A1, “SALT AND CRYSTAL FORM OF NITROGEN-CONTAINING HETEROCYCLIC DERIVATIVE, PREPARATION METHOD THEREFOR AND APPLICATION THEREOF” (SHANGHAI HANSOH BIOMEDICAL CO., LTD., priority 2020, published 2024) are described below.

Read-outs that look alike come from different tables or passages of the source.

The test system of data set [1] is NCI-H358 cells (KRAS G12C mutant). Kind of data set: Inhibition of NCI-H358 cell proliferation (CellTiter-Glo, 72 h). It counts as cell-based, human. The procedure: (§1) When NCI-H358 or Mia PaCa-2 cells were cultured to the appropriate fusion level, the NCI-H358 or Mia PaCa-2 cells were collected, and the cells were adjusted to the appropriate cell concentration using a complete medium, and the cell suspension was spread in a 96-well plate, 90 μL per well, and placed in a 37° C., 5% CO2 incubator overnight; and compound solutions of different concentrations were prepared using DMSO and culture medium; and a solvent control was set, the compound solution was added to a 96-well plate, 10 μL per well, at 37° C. in a 5% CO2 incubator for 72 hours; CellTiter-Glo solution was added thereto and the mixture was mixed well by shaking, incubated for 10 min in the dark, and read by BioTek Synergy H1 microplate reader.
(§2) The luminescence signal values were used to calculate the inhibition rate, the concentration and the inhibition rate were fitted to a nonlinear regression curve using Graphpad Prism software, then the IC50 value was obtained.

The subject of data set [2] is Mia PaCa-2 cells (KRAS G12C mutant). Kind of data set: Inhibition of Mia PaCa-2 cell proliferation (CellTiter-Glo, 72 h). The class given is cell-based, human. How it is done: as §1, §2
Data set [3] is described as follows: Pharmacokinetics in MiaPaca 2 tumor-bearing mice (plasma, tumor tissue). It counts as in vivo. The following applies: female, mouse, po, p.o. 6 mg/kg. The procedure: The pharmacokinetic behavior of the compound of the embodiment 13-1 and AMG-510 compound, administered orally at a dose of 6 mg/kg, in mice (plasma, tumor tissue and intestine) was studied using MiaPaca 2 tumor-bearing mice as test animals.
24 MiaPaca 2 tumor-bearing mice, females. 3 for each time point (0 h, 1 h, 2 h, 4 h, 6 h, 8 h, 16 h, 24 h). Shanghai xipuer-bikai Laboratory Animal Co., Ltd, Animal Production License No. (SCXK (Shanghai) 2018-0006.
Embodiment compound 13-1 and compound AMG-510 were weighed and dissolved in the solution, the mixture was shaken well, and ultrasound was performed for 15 minutes to obtain a uniform suspension with a concentration of 0.6 mg/mL.
MiaPaca 2 tumor-bearing mice were administered at a dose of 6 mg/kg in a volume of 10 mL/kg, respectively, based on body weight p.o. after fasting (animals were not administered at point 0 h).
Before and after administration, mice were sacrificed with CO2, 0.5 mL blood was collected from the heart and placed in EDTA-2K tube, centrifuged at 4° C. […] The duodenum, ileum and colon tissues were cut with scissors, the contents were removed and cleaned twice with PBS, after absorbing water with absorbent paper, they were weighed, placed in a 2 mL centrifuge tube and stored at −80° C.

Data set [4] in a line: Plasma stability, human plasma. It counts as in vitro ADME. Conditions: human. How it is done: (§3) Animal or human whole blood was collected, then the blood was put into a test tube containing anticoagulant, centrifuged at 3500 rpm for 10 min, and the upper layer of pale yellow plasma was collected. • 2) 10 μM of tested compound (m/M/V=C)
(§4) The compound was weighed, the stock solution was prepared with DMSO and the working solution was prepared with 100 mM phosphate buffer. • 3) 10 μM of positive control • (1) Propantheline (Propantheline Mr=449.4 Da)
(§5) • 1) 285 μL of plasma and 15 μL of 10 μM compound (tested compound) were added in turn in a 96-well plate, and incubated at 37° C. • 2) 40 μL was taken out at 0, 15, 30, 60, 90, 120 min, respectively, and 160 μL of acetonitrile termination solution containing internal standard was added. • 3) After centrifugation (3500 rpm, 10 min), 50 μL of supernatant was taken out, and then diluted with 50 μL DDH2O and injected to LC-MS/MS.
(§6) • instrument: Shimadzu LC-20 AD • chromatographic column: phenomenex Gemiu® C18 (50*4.6 mm, 5 μM particle size); • mobile phase: A: acetonitrile, B: 0.1% formic acid solution 0-8 min: 5% A→95% A, 2.0-2.1 min: 90% A→5% A; flow rate: 0.8 mL/min; running time: 5.0 min; injection volume: 5 μL.
(§7) • instrument: API4000 Liquid Chromatography-Mass Spectrometry, AB, USA; • the ion source was electrospray ionization source (ESI); • the temperature of dry gas (N2) was 500° C.; • electrospray voltage was 5500V; • the detection method was positive ion detection; • the scanning mode was selective response monitoring (MRM); • the scanning time was 0.1 s.

The nature of data set [5]: Plasma stability, dog plasma. The class given is in vitro ADME. The procedure:
as §3, §4, §5, §6, §7

The nature of data set [6]: Plasma stability, rat plasma. The class given is in vitro ADME. The procedure: as §3, §4, §5, §6, §7
The nature of data set [7]: Plasma stability, mouse plasma. It counts as in vitro ADME. The procedure:
as §3, §4, §5, §6, §7

A further data set deals with T1, human KRAS G12C protein (Homo sapiens, UniProt P01116, G12C).
T1 construct: purchased Beijing SinoBiological Co., Ltd. 12259-H07E2
Kind of data set: Thermal shift: melting temperature of KRAS G12C protein. Conditions: for Tm: KRAS G12C protein 5.37 μM with compound 10 μM, 1 hour; for ΔTm at 10 µM: Tm minus Tm of DMSO solvent control, compound 10 μM. It counts as binding. The procedure: In this experiment, the thermal shift method was used to test the degree of change in the melting temperature (Tm) of the KRAS G12C protein before and after the binding of the compound, in order to characterize the ability of the compound to improve the stability of the KRAS G12C protein.
The specific experiment operation was as follows: • A solution containing […] (pH 7.5), 1 mM DTT, 5× SYPRO Orange and 150 mM NaCl was prepared as the experimental buffer, and a final concentration of 5.37 μM human KRAS G12C protein was added thereto. The reaction mixture was divided into 8 rows of PCR tubes, each 19.5 μL, and 0.5 μL of the test compound or DMSO were added respectively, so that the total reaction system was 20 μL, the final concentration of the compound was 10 μM, and 2.5% DMSO was set as the solvent control. After incubating at room temperature in the dark for 1 hour, the PCR tube was put into the PCR instrument, QuantStudio Software v1.3 was opened, and the melting temperature of KRAS G12C protein in different treatment groups was detected by melt curve function (heating from 25° C. to 95° C., 0.03° C./s).
The experimental data file of PCR instrument was imported into thermal shift software, and the melting temperature (Tm) of each treatment group was obtained, and the change value of melting temperature (ATm) was obtained by subtracting the Tm of DMSO solvent control group.

On to `C=CC(=O)N1CCN(c2nc(=O)n(-c3c(SC)ccnc3C(C)C)c3nc(-c4c(F)cccc4F)c(Cl)cc23)[C@@H](C)C1` [Embodiment 12, (S)-4-(4-acryloyl-2-methylpiperazin-1-yl)-7-(2,6-difluorophenyl)-6-chloro-1-(2-isopropyl-4-(methylthio)pyridin-3-yl)pyrido[2,3-d]pyrimidin-2(1H)-one], for which the IC50 in data set [1] (Homo sapiens, NCI-H358, 72 h) came out at 79 nM; in data set [2] (Homo sapiens, MIA PaCa-2, 72 h), 68 nM.
With `C=CC(=O)N1CCN(c2nc(=O)n(-c3c(C)ccnc3C(C)C)c3nc(-c4c(O)cccc4F)c(F)cc23)[C@@H](C)C1` [AMG 510, reference compound], the values for the MRT in data set [3] (Plasma) and in data set [3] (Tumor) were 0.8 h and 0.7 h, respectively. For the same compound, the half-life in data set [3] (Plasma) and in data set [3] (Tumor) was 0.3 h in each case. In data set [3] (exposure in tumor to exposure in plasma, read-out: Ratio (T/P)), the Kp is 0.42. Also, the “Residual rate (%) 0 min” value in data set [4] (0 min, 0.5 μM) is recorded as 100.00%; in data set [5] (dog plasma, 37° C., 0 min), 100.00%; in data set [6] (rat plasma, 37° C., 0 min), 100.00%; in data set [7] (mouse plasma, 37° C., 0 min), 100.00%. For the same compound, the “Residual rate (%) 15 min” value in data set [4] (15 min, 0.5 μM) is given as 93.77%; in data set [5] (dog plasma, 37° C., 15 min), 98.88%; in data set [6] (rat plasma, 37° C., 15 min), 100.85%; in data set [7] (mouse plasma, 37° C., 15 min), 97.50%. Further, the “Residual rate (%) 30 min” value in data set [4] (30 min, 0.5 μM) is reported as 85.72%; in data set [5] (dog plasma, 37° C., 30 min), 101.14%; in data set [6] (rat plasma, 37° C., 30 min) it was 93.03%; in data set [7] (mouse plasma, 37° C., 30 min), 82.58%. Moreover, the “Residual rate (%) 60 min” value turned out to be 82.51% in data set [4] (60 min, 0.5 μM); 93.43% in data set [5] (dog plasma, 37° C., 60 min); 77.54% in data set [6] (rat plasma, 37° C., 60 min); 81.82% in data set [7] (mouse plasma, 37° C., 60 min). Moreover, the “Residual rate (%) 120 min” value in data set [4] (120 min, 0.5 μM) is 64.44%; in data set [5] (dog plasma, 37° C., 120 min), 91.92%; in data set [6] (rat plasma, 37° C., 120 min) it was 56.77%; in data set [7] (mouse plasma, 37° C., 120 min), 63.23%. Besides, the half-life at 0.5 μM in data set [4] (plasma) was 3.31 h; in data set [5] (dog, plasma), 14.7 h; in data set [6] (rat, plasma), 2.29 h; in data set [7] (mouse, plasma), 3.08 h.
With `C=CC(=O)N1CCN(c2nc(=O)n(-c3c(SC)ccnc3C(C)C)c3nc(-c4c(O)cccc4F)c(Cl)cc23)[C@@H](C)C1` [Embodiment 3, 4-((S)-4-Acryloyl-2-methylpiperazin-1-yl)-6-chloro-7-(2-fluoro-6-hydroxyphenyl)-1-(2-isopropyl-4-(methylthio)pyridin-3-yl)pyrido[2,3-d]pyrimidin-2(1H)-one], in data set [1] (Homo sapiens, NCI-H358, 72 h), the IC50 came out at 14 nM. Also, at human KRAS G12C protein, the Tm turned out to be 61.5 °C and the ΔTm at 10 µM is 10.9 °C. The IC50 in data set [2] (Homo sapiens, MIA PaCa-2, 72 h) came out at 41 nM.
On to `C=CC(=O)N1CCN(c2nc(=O)n(-c3c(SC)ccnc3C(C)C)c3nc(-c4c(O)cccc4F)c(F)cc23)[C@@H](C)C1` [Embodiment 1-1, P-4-((S)-4-acryloyl-2-methylpiperazin-1-yl)-6-fluoro-7-(2-fluoro-6-hydroxyphenyl)-1-(2-isopropyl-4-(methylthio)pyridin-3-yl)pyrido[2,3-d]pyrimidin-2(1H)-one], for which the results for the IC50 in data set [1] and in data set [2] were 28 nM and 55 nM, respectively.
In the case of `C=CC(=O)N1CCN(c2nc(=O)n(-c3c(SC)ccnc3C(C)C)c3nc(-c4c(F)cccc4SC)c(F)cc23)[C@@H](C)C1` [Embodiment 4, 4-((S)-4-Acryloyl-2-methylpiperazin-1-yl)-6-fluoro-7-(2-fluoro-6-(methylthio)phenyl)-1-(2-isopropyl-4-(methylthio)pyridin-3-yl)pyrido[2,3-d]pyrimidin-2(1H)-one], the half-inhibitory concentration (IC50) in data set [1] (Homo sapiens, NCI-H358, 72 h) is 48 nM. Also, at human KRAS G12C protein, the Tm is 61.2 °C and the ΔTm at 10 µM stood at 11.7 °C. Besides, in data set [2] (Homo sapiens, MIA PaCa-2, 72 h), the IC50 amounted to 47 nM.
